pIC50: −log10 of the molar value.

For eight molecules, IC50 results are on record in patent US5693642A, “Piperazine derivatives as 5-HT1A ligands” (John Wyeth & Brother Ltd., priority 1993, dated 1997).

For the assay, the target named is T1, 5-HT1A receptor (Rattus norvegicus, UniProt P19327).
T1 construct: rat hippocampal membrane homogenate; from tissue; host or cells: rat hippocampal membrane homogenate
T1 sequence (P19327 1-422): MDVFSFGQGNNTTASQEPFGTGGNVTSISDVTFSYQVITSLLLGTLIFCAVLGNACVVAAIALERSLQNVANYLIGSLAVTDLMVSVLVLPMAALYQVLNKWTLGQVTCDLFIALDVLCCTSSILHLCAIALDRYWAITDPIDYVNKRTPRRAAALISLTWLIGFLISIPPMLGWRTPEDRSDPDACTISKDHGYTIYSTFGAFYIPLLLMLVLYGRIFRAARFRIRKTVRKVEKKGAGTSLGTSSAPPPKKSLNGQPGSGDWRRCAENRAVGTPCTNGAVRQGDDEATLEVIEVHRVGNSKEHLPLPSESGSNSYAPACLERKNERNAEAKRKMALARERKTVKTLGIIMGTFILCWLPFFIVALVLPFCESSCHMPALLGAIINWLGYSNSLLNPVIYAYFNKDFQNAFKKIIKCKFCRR
The assay is described as follows: 5-HT1A receptor binding activity in rat hippocampal membrane homogenate. As for the experimental part: The compounds of the invention were tested for 5-HT1A receptor binding activity in rat hippocampal membrane homogenate by the method of B. S. Alexander and M. D. Wood, J Pharm Pharmacol, 1988, 40, 888-891.
As for `COc1ccccc1N1CCN(C[C@H](c2ccccn2)[C@H](O)C2CCCCC2)CC1` (relative stereo) [Example 1a, R*, R*-1-(2Methoxyphenyl)-4-[(2-propan-(2-pyridinyl)-3-cyclohexyl)-3-ol]piperazine], the pIC50 was 8.40.
`COc1ccccc1N1CCN(C[C@H](c2ccccn2)[C@@H](O)C2CCCCC2)CC1` (relative stereo) [Example 1b, R*, S*-1-(2-Methoxyphenyl)-4-[(2-propan-(2-pyridinyl)-3-cyclohexyl)-3-ol]piperazine] had a pIC50 of 8.37.
With `COc1ccccc1N1CCN(CC[C@H](c2ccccn2)[C@H](O)C2CCCCC2)CC1` (relative stereo) [Example 2a, R*,R*-1-(2-Methoxyphenyl)-4-[3-butan-(2-pyridinyl)-4-cyclohexyl)-4-ol]piperazine] the figure was 8.70.
The molecule `COc1ccccc1N1CCN(CC[C@H](c2ccccn2)[C@@H](O)C2CCCCC2)CC1` (relative stereo) [Example 2b, R*,S*-1-(2-Methoxyphenyl)-4-[3-butan-(2-pyridinyl)-4-cyclohexyl)-4-ol]piperazine] had a pIC50 of 8.74.
With `COc1ccccc1N1CCN(CCC(c2ccccn2)[S+]([O-])C2CCCCC2)CC1` (single isomer, unassigned) [Example 7, 1-(2-Methoxyphenyl)-4-[3-(cyclohexylsulphoxy)-3-(2-pyridinyl)propyl]piperazine] the figure was 7.82; with `COc1ccccc1N1CCN(CCC(C(=O)C2CCCCC2)c2ccccn2)CC1` (centres unmarked) [Example 3], 8.59; with `COc1ccccc1N1CCN(CCC(CC2CCCCC2)c2ccccn2)CC1` (centres unmarked) [Example 4], 8.80.
To `COc1ccccc1N1CCN(CCC(SC2CCCCC2)c2ccccn2)CC1` (centres unmarked) [Example 6, 1-(2-Methoxyphenyl)-4-[3-(cyclohexylthio)-3-(2-pyridinyl)propyl]piperazine] belongs 8.37.
